pIC50: −log10 of the molar value.
Target: C-Raf FL (Homo sapiens (Human), UniProt P04049, Y340E/Y341E)
Assay: In vitro Raf activity determination (Alpha Screen, phospho-MEK), C-Raf FL (full length, Y340E/Y341E)
Assay type: biochemical
Conditions: ATP 1 μM; 60 min pre-incubation; 1 hour reaction; column head does not say FL or TR
Outline: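 Read-out is AlphaScreen luminescence using rabbit anti-p-MEK with protein A beads after EDTA stop, with IC50 fitted by non-linear regression. Reaction: Sf9-derived C-Raf plus biotinylated E. coli MEK1 K97R substrate, pH 7.5 Tris/MgCl2/DTT buffer, compound preincubated 60 min at room temperature.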

Chain of C-Raf FL (P04049 whole entry Y340E/Y341E): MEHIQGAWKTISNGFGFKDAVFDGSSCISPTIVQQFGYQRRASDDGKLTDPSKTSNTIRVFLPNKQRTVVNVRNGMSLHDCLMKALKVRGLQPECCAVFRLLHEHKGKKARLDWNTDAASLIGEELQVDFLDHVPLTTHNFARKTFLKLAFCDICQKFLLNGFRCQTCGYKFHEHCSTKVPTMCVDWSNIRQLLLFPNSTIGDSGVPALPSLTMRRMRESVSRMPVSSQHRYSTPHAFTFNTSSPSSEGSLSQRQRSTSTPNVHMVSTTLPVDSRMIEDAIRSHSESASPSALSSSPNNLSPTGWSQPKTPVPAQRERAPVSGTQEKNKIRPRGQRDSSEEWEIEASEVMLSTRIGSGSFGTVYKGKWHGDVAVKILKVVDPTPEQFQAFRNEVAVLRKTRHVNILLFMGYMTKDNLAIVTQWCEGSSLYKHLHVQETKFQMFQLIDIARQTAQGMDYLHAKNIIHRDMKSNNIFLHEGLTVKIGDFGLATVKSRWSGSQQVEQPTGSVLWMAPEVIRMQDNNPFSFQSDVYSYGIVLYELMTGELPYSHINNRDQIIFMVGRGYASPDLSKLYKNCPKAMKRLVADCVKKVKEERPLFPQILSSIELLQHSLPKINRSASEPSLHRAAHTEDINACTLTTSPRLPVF
Chain of C-Raf FL (P63104 whole entry partner): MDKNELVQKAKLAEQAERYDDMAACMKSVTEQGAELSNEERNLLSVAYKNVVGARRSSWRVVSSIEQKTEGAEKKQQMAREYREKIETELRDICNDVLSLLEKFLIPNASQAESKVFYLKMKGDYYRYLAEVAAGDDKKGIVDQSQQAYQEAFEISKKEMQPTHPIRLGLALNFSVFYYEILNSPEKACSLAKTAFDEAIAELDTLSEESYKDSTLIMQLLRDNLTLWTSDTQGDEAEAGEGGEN

| pIC50 | SMILES |
| --- | --- |
| 10.00 | Cc1ccc(NC(=O)c2cnnc(C(F)(F)F)c2)cc1-c1cc(OCCO)nc(C2(C)CCOCC2)c1 [Example 207, N-(3-(2-(2-hydroxyethoxy)-6-(4-methyltetrahydro-2H-pyran-4-yl)pyridin-4-yl)-4-methylphenyl)-6-(trifluoromethyl) pyridazine-4-carboxamide] |
| 9.15 | Cc1nc2cc(C3CCOCC3)cc(-c3cc(NC(=O)c4ccnc(C(F)(F)F)c4)ccc3C)c2[nH]1 [Example 220, N-(4-methyl-3-(2-methyl-5-(tetrahydro-2H-pyran-4-yl)-1H-benzo[d]imidazol-7-yl)phenyl)-2-(trifluoromethyl) isonicotinamide] |
| 8.70 | Cc1nc2cc(C3CCOCC3)cc(-c3cc(NC(=O)c4cnnc(C(F)(F)F)c4)ccc3C)c2[nH]1 [Example 221, N-(4-methyl-3-(2-methyl-5-(tetrahydro-2H-pyran-4-yl)-1H-benzo[d]imidazol-7-yl)phenyl)-6-(trifluoromethyl) pyridazine-4-carboxamide] |
| 9.40 | Cc1nc2cc(C3CCOCC3)cc(-c3cc(NC(=O)c4ccnc(C(C)(F)F)c4)ccc3C)c2[nH]1 [Example 222, 2-(1,1-difluoroethyl)-N-(4-methyl-3-(2-methyl-5-(tetrahydro-2H-pyran-4-yl)-1H-benzo[d]imidazol-7-yl)phenyl) isonicotinamide] |
| 8.30 | Cc1nc2cc(C3CCOCC3)cc(-c3cc(NC(=O)c4cc(C(F)(F)F)ccn4)ccc3C)c2[nH]1 [Example 224, N-(4-methyl-3-(2-methyl-5-(tetrahydro-2H-pyran-4-yl)-1H-benzo[d]imidazol-7-yl)penyl)-4-(trifluoromethyl) picolinamide] |
| 10.70 | CCOc1nnc(-c2cc(NC(=O)c3ccnc(C(C)(F)F)c3)ccc2C)cc1C1CCOCC1 [Example 225, 2-(1,1-difluoroethyl)-N-(3-(6-ethoxy-5-(tetrahydro-2H-pyran-4-yl)pyridazin-3-yl)-4-methylphenyl) isonicotinamide] |
| 8.40 | CCOc1nnc(-c2cc(NC(=O)c3cc(C(F)(F)F)c[nH]c3=O)ccc2C)cc1C1CCOCC1 [Example 226, N-(3-(6-ethoxy-5-(tetrahydro-2H-pyran-4-yl)pyridazin-3-yl)-4-methylphenyl)-2-oxo-5-(trifluoromethyl)-1,2-dihydropyridine-3-carboxamide] |
| 9.70 | CCOc1nnc(-c2cc(NC(=O)c3ccnc(C4(C(F)(F)F)CC4)c3)ccc2C)cc1C1CCOCC1 [Example 227, N-(3-(6-ethoxy-5-(tetrahydro-2H-pyran-4-yl)pyridazin-3-yl)-4-methylphenyl)-2-(1-(trifluoromethyl)cyclopropyl) isonicotinamide] |
| 10.22 | CCOc1nnc(-c2cc(NC(=O)c3cc(C(F)(F)F)c(Cl)cn3)ccc2C)cc1C1CCOCC1 [Example 228, 5-chloro-N-(3-(6-ethoxy-5-(tetrahydro-2H-pyran-4-yl)pyridazin-3-yl)-4-methylphenyl)-4-(trifluoromethyl) picolinamide] |
| 9.15 | CCOc1nnc(-c2cc(NC(=O)c3ccnc(C#N)c3)ccc2C)cc1C1CCOCC1 [Example 229, 2-cyano-N-(3-(6-ethoxy-5-(tetrahydro-2H-pyran-4-yl)pyridazin-3-yl)-4-methylphenyl)] |
| 7.96 | CCOc1nnc(-c2cc(NC(=O)c3cnc(C(F)(F)F)cn3)ccc2C)cc1C1CCOCC1 [Example 230, N-(3-(6-ethoxy-5-(tetrahydro-2H-pyran-4-yl)pyridazin-3-yl)-4-methylphenyl)-5-(trifluoromethyl) pyrazine-2-carboxamide] |
| 9.70 | CCOc1nnc(-c2cc(NC(=O)c3cncc(C(F)(F)F)c3)ccc2C)cc1C1CCOCC1 [Example 231, N-(3-(6-ethoxy-5-(tetrahydro-2H-pyran-4-yl)pyridazin-3-yl)-4-methylphenyl)-5-(trifluoromethyl) nicotinamide] |
| 10.52 | CCOc1nnc(-c2cc(NC(=O)c3cc(C(F)(F)F)ncn3)ccc2C)cc1C1CCOCC1 [Example 232] |
| 8.70 | CCOc1nnc(-c2cc(NC(=O)c3ccnc(C(C)(C)F)c3)cnc2C)cc1C1CCOCC1 [Example 233, N-(5-(6-ethoxy-5-(tetrahydro-2H-pyran-4-yl)pyridazin-3-yl)-6-methylpyridin-3-yl)-2-(2-fluoropropan-2-yl) isonicotinamide] |
| 10.10 | CCOc1nnc(-c2cc(NC(=O)c3cccc(C(F)(F)F)c3)cnc2C)cc1C1CCOCC1 [Example 234, N-(5-(6-ethoxy-5-(tetrahydro-2H-pyran-4-yl)pyridazin-3-yl)-6-methylpyridin-3-yl)-3-(trifluoromethyl) benzamide] |
| 9.52 | CCOc1nnc(-c2cc(NC(=O)c3ccnc(C(F)(F)F)c3)cnc2C)cc1C1CCOCC1 [Example 236, N-(5-(6-ethoxy-5-(tetrahydro-2H-pyran-4-yl)pyridazin-3-yl)-6-methylpyridin-3-yl)-2-(trifluoromethyl) isonicotinamide] |
| 10.00 | CCOc1nnc(-c2cc(NC(=O)c3cnnc(C(F)(F)F)c3)ccc2C)cc1C1CCOCC1 [Example 237, N-(5-(6-ethoxy-5-(tetrahydro-2H-pyran-4-yl)pyridazin-3-yl)-4-methylphenyl)-6-(trifluoromethyl) pyridazine-4-carboxamide] |
| 10.15 | CCOc1nnc(-c2cc(NC(=O)c3ccnc(C(C)(C)F)c3)ccc2C)cc1C1CCOCC1 [Example 238, N-(3-(6-ethoxy-5-(tetrahydro-2H-pyran-4-yl)pyridazin-3-yl)-4-methylphenyl)-2-(2-fluoropropan-2-yl) isonicotinamide] |
| 10.40 | CCOc1nnc(-c2cc(NC(=O)c3ccnc(C(F)(F)F)c3)ccc2C)cc1C1CCOCC1 [Example 239, N-(3-(6-ethoxy-5-(tetrahydro-2H-pyran-4-yl)pyridazin-3-yl)-4-methylphenyl)-2-(trifluoromethyl) isonicotinamide] |

Further lines, the compound ahead of its results:

| SMILES | pIC50 |
| --- | --- |
| Cc1ccc(NC(=O)c2ccnc(C(F)(F)F)c2)cc1-c1cc(OCCO)nc(C2(C)CCOCC2)c1 [Example 205, N-(3-(2-(2-hydroxyethoxy)-6-(4-methyltetrahydro-2H-pyran-4-yl)pyridin-4-yl)-4-methylphenyl)-2-(trifluoromethyl) isonicotinamide] | 9.40 |
| Cc1ccc(NC(=O)c2ccnc(C(C)(F)F)c2)cc1-c1cc(OCCO)nc(C2(C)CCOCC2)c1 [Example 206, 2-(1,1-difluoroethyl)-N-(3-(2-(2-hydroxyethoxy)-6-(4-methyltetrahydro-2H-pyran-4-yl)pyridin-4-yl)-4-methylphenyl) isonicotinamide] | 9.40 |
| Cc1ccc(NC(=O)c2ccnc(C(C)(C)C#N)c2)cc1-c1cc(OCCO)nc(C2(C)CCOCC2)c1 [Example 208, 2-(2-cyanopropan-2-yl)-N-(3-(2-(2-hydroxyethoxy)-6-(4-methyltetrahydro-2H-pyran-4-yl)pyridin-4-yl)-4-methylphenyl) isonicotinamide] | 9.30 |
| Cc1ccc(NC(=O)c2cc(C(F)(F)F)ccn2)cc1-c1cc(OCCO)nc(C2(C)CCOCC2)c1 [Example 209, N-(3-(2-(2-hydroxyethoxy)-6-(4-methyltetrahydro-2H-pyran-4-yl)pyridin-4-yl)-4-methylphenyl)-4-(trifluoromethyl) picolinamide] | 9.70 |
| Cc1ccc(NC(=O)c2ccnc(C(F)(F)F)c2)cc1-c1cc(OCCO)nc(C2(CF)CCOCC2)c1 [Example 210] | 9.52 |
| Cc1ccc(NC(=O)c2ccnc(C(C)(F)F)c2)cc1-c1cc(OCCO)nc(C2(CF)CCOCC2)c1 [Example 211, 2-(1,1-difluoroethyl)-N-(3-(2-(4-(fluoromethyl)tetrahydro-2H-pyran-4-yl)-6-(2-hydroxyethoxy)pyridin-4-yl)-4-methylphenyl) isonicotinamide] | 9.52 |
| Cc1ccc(NC(=O)c2cnnc(C(F)(F)F)c2)cc1-c1cc(OCCO)nc(C2(CF)CCOCC2)c1 [Example 212, N-(3-(2-(4-(fluoromethyl)tetrahydro-2H-pyran-4-yl)-6-(2-hydroxyethoxy)pyridin-4-yl)-4-methylphenyl)-6-(trifluoromethyl) pyridazine-4-carboxamide] | 10.10 |
| Cc1ccc(NC(=O)c2ccnc(C(C)(C)C#N)c2)cc1-c1cc(OCCO)nc(C2(CF)CCOCC2)c1 [Example 213, 2-(2-cyanopropan-2-yl)-N-(3-(2-(4-(fluoromethyl)tetrahydro-2H-pyran-4-yl)-6-(2-hydroxyethoxy)pyridin-4-yl)-4-methylphenyl) isonicotinamide] | 9.70 |
| Cc1ccc(NC(=O)c2cc(C(F)(F)F)ccn2)cc1-c1cc(OCCO)nc(C2(CF)CCOCC2)c1 [Example 214, N-(3-(2-(4-(fluoromethyl)tetrahydro-2H-pyran-4-yl)-6-(2-hydroxyethoxy)pyridin-4-yl)-4-methylphenyl)-4-(trifluoromethyl) picolinamide] | 9.52 |
| Cc1ccc(NC(=O)c2ccnc(C(F)(F)F)c2)cc1-c1cc(OCCO)nc(C2(CO)CCOCC2)c1 [Example 215] | 10.00 |
| Cc1ccc(NC(=O)c2ccnc(C(C)(F)F)c2)cc1-c1cc(OCCO)nc(C2(CO)CCOCC2)c1 [Example 216, 2-(1,1-difluoroethyl)-N-(3-(2-(2-hydroxyethoxy)-6-(4-(hydroxymethyl)tetrahydro-2H-pyran-4-yl)pyridin-4-yl)-4-methylphenyl) isonicotinamide] | 9.70 |
| Cc1ccc(NC(=O)c2cnnc(C(F)(F)F)c2)cc1-c1cc(OCCO)nc(C2(CO)CCOCC2)c1 [Example 217] | 9.52 |
| Cc1ccc(NC(=O)c2cc(C(F)(F)F)ccn2)cc1-c1cc(OCCO)nc(C2(CO)CCOCC2)c1 [Example 219] | 9.30 |
| Cc1nc2cc(C3CCOCC3)cc(-c3cc(NC(=O)c4ccnc(C(C)(C)C#N)c4)ccc3C)c2[nH]1 [Example 223, 2-(2-cyanopropan-2-yl)-N-(4-methyl-3-(2-methyl-5-(tetrahydro-2H-pyran-4-yl)-1H-benzo[d]imidazol-7-yl)phenyl) isonicotinamide] | 9.22 |

Source: patent US10167279B2 (NOVARTIS AG, priority 2014, dated 2019)
